What was measured:
[1] = tested on: reconstructed human epidermis (RhE) model; set-up: unit not given beside the values; settings: known irritants and non-irritants given as examples of the scale; cited from earlier work
[2] = tested on: reconstructed human epidermis (RhE) model; assay: In vitro irritancy, EpiDerm MTT ET50 Protocol (EPI-200), Example 1; assay type: cell-based
Protocol: In vitro irritancy was tested using a commercially available kit “EpiDerm MTT ET50 Protocol (EPI-200)”, available from MatTek Corporation (Ashland, Mass.). The test kit is used as a validated replacement for in vivo irritation testing otherwise known as “Draize testing”, in the EU (OECD TG439). Our method of data analysis and outcome prediction is altered slightly to determine relative differences in irritation potential between experimental neat materials tested within the same kit.
The test consists of a topical exposure of the neat experimental material to a reconstructed human epidermis (RhE) model followed by a cell viability assay. The cell viability test method is based on the enzymatic conversion of mitochondrial dehydrogenase with MTT [(3-4,5-dimethyl thiazole-2-yl) 2,5-diphenyltetrazolium bromide], resulting in a blue formazan salt, which is than extracted from the tissues and quantitated. […]
EpiDerm tissues are conditioned overnight at 37±2° C., 5% CO2, to relieve stress from the shipping process. […] After the three hour incubation in MTT, the formazan salt is extracted using 2.0 mL of isopropanol and the optical density (OD) of each sample is measured at 570 nm. Relative cell viability is calculated as a % of the mean of the negative control tissue. Dose-response curves are constructed for each sample and an ET50 value is calculated. […]

Row | Compound | ET50 (Irritancy Scale, example substances) [1] | Expected In vivo Irritancy Score ([2]; from ET50 by Irritancy Scale) | ET50 Value ([2]; neat material, exposure 1, 4 or 24 hrs, time to reduce cell viability to 50%)
1 | O=[N+]([O-])O [Nitric Acid] | <0.5 |  | 
2 | CCCCCCCCCCCCOS(=O)(=O)[O-].[Na+] [1% SDS, SDS] | 0.5-4 |  | 
3 | Triton X-100 [1.0% Triton X-100] | 4-12 | very mild (12-24) | 12.69 h
